Laboratory results: US5492929A, “Condensed heterocyclic compounds useful for inhibiting acyl-CoA” (Takeda Chemical Industries, Ltd., priority 1992, dated 1996)

Experiments:
[1] = biological target: T1, Acyl-CoA:cholesterol acyltransferase (ACAT) (Rattus norvegicus, UniProt Q7TQM4); assay: ACAT inhibitory action: labeled cholesterol ester formation from [1-14C]oleoyl-CoA and endogenous cholesterol, small-intestinal mucosal microsomal enzyme; type: biochemical, rat (Sprague-Dawley); conditions: 10^-6 M; read-out: ACAT inhibitory rate (%)
T1 construct: prepared from the microsomal fraction of mucosal cells from the small intestines of rats; from tissue; host or cells: microsomal fraction of small-intestinal mucosal cells, fasted 6-week-old male Sprague-Dawley rats
T1 sequence (Q7TQM4 1-524): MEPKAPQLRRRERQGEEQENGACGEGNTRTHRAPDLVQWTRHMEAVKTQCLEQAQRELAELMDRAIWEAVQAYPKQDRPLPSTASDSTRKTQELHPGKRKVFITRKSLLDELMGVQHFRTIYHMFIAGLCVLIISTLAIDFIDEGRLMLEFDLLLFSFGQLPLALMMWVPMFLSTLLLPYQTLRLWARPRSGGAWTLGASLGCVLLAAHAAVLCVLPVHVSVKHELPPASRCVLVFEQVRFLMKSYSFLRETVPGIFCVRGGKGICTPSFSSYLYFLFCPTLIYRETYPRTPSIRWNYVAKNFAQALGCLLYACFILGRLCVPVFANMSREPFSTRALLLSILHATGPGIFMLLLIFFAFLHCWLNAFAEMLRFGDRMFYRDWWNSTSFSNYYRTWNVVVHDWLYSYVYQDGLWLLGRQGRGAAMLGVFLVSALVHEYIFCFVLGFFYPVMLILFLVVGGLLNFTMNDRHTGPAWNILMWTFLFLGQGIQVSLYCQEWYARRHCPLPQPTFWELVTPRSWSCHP
Procedure: In accordance with the method disclosed by Heider et al. on Journal of Lipid Research, 24, p.1127 (1983), an enzyme sample ACAT was prepared from the microsomal fraction of mucosal cells from the small intestines of rats (6-week old male Sprague-Dawleys) fasted for 20 hours.
The ACAT activity was determined by, in accordance with the method disclosed by Helgerud et al. on Journal of Lipid Research 22, p.271 (1981), measuring the amount of labeled cholesterol ester from [1-^14 C]oleoyl-CoA and endogenous cholesterol.
(1) In Table 2, the labeled cholesterol ester formation inhibitory rate (%) determined when supplemented with 10^-6 M of a test compound (a representative one of the compounds obtained in the following Examples 1 to 24) is shown as the index of ACAT inhibitory activity.

[2] = test system: hypercholesterolemic ICR mice; assay: Hypocholesterolemic (cholesterol-lowering) activity in mice fed a high cholesterol-cholic acid diet; type: in vivo, mouse (ICR); conditions: serum, vs control
Procedure: Groups of 6 ICR mice (2 subgroups of 3 mice) were made hypercholesterolemic by being fed a high cholesterol-cholic acid diet for 7 days and administered with test compounds orally on the last two days. One-half of the total dose was given on day 6 followed by the other half on day 7. After fasting overnight (16 hours after the last dose), the animals were sacrificed and sera were collected together for the each subgroup for measuring the levels of cholesterol and heparin precipitating lipoproteins (HPL). Both cholesterol and HPL levels were measured with autoanalyzer by the enzymatic CHOD-PAP method for the former and by the turbidimetric method of Shurr et. al. [in C. E. Dau ed. Atherosclerosis Drug Discovery, Plenum Publishing, New York, pp.215-229 & 231-249, 1976.] for the latter.

[3] = biological target: T1, Acyl-CoA:cholesterol acyltransferase (ACAT); assay: ACAT inhibitory action: labeled cholesterol ester formation from [1-14C]oleoyl-CoA and endogenous cholesterol, small-intestinal mucosal microsomal enzyme; type: biochemical, rat (Sprague-Dawley); conditions: 10^-8 M; read-out: ACAT inhibitory rate (%) (in parentheses)
[4] = 30 mg/kg po (total dose, halves on day 6 and 7)
[5] = 1 mg/kg po (total dose, halves on day 6 and 7)
[6] = 10 mg/kg po (total dose, halves on day 6 and 7)

## Cc1ccccc1-c1c(CC(=O)Nc2c(C(C)C)cccc2C(C)C)oc2ccc(Cl)cc12 [Example 1, N-[2,6-Bis(1-methylethyl)phenyl]-5-chloro-3-(2-methylphenyl)-2-benzofuranacetamide]
[1]
  inhibition at 1 µM: 99.2%
[2]; [4]
  Reduction % HPL (heparin precipitating lipoproteins): 27%
  Reduction % cholesterol: 32%
[3]
  inhibition at 0.01 µM: 93.7%

## COc1cccc(OC)c1NC(=O)Cc1oc2ccc(Cl)cc2c1-c1ccccc1C [Example 2, 5-Chloro-N-(2,6-dimethoxyphenyl)-3-(2-methylphenyl)-2-benzofuranacetamide]
[1]
  inhibition at 1 µM: 98.8%

## Cc1cc(C)c(NC(=O)Cc2oc3ccc(Cl)cc3c2-c2ccccc2C)c(C)c1 [Example 3, 5-Chloro-3-(2-methylphenyl)-N-(2,4,6-trimethylphenyl)-2-benzofuranacetamide]
[1]
  inhibition at 1 µM: 90.8%

## CC(C)c1cccc(C(C)C)c1NC(=O)Cc1oc2ccc(Cl)cc2c1-c1ccccc1 [Example 4, N-[2,6-Bis(1-methylethyl)phenyl]-5-chloro-3-phenyl-2-benzofuranacetamide]
[1]
  inhibition at 1 µM: 99%

## COc1cccc(OC)c1NC(=O)Cc1oc2ccc(Cl)cc2c1-c1ccccc1 [Example 5, 5-Chloro-N-(2,6-dimethoxyphenyl)-3-phenyl-2-benzofuran acetamide]
[1]
  inhibition at 1 µM: 93.2%

## Cc1ccccc1-c1c(CC(=O)Nc2c(C(C)C)cccc2C(C)C)n(C)c2ccc(Cl)cc12 [Example 7, N-[2,6-Bis(1-methylethyl)phenyl]-5-chloro-1-methyl-3-(2-methylphenyl)-2-indoleacetamide]
[1]
  inhibition at 1 µM: 92.3%

## COc1cccc(OC)c1NC(=O)Cc1c(-c2ccccc2C)c2cc(Cl)ccc2n1C [Example 8, 5-Chloro-N-(2,6-dimethoxyphenyl)-1-methyl-3-(2-methylphenyl)-2-indoleacetamide]
[1]
  inhibition at 1 µM: 91.2%

## Cc1ccccc1-c1c(NC(=O)Nc2c(C(C)C)cccc2C(C)C)oc2ccc(Cl)cc12 [Example 11, N-[2,6-Bis(1-methylethyl)phenyl]-N'-[5-chloro-3-(2-methylphenyl)-2-benzofuryl]urea]
[1]
  inhibition at 1 µM: 99.1%
[2]; [5]
  Reduction % HPL (heparin precipitating lipoproteins): 27%
  Reduction % cholesterol: 28%
[2]; [6]
  Reduction % HPL (heparin precipitating lipoproteins): 38%
  Reduction % cholesterol: 31%
[3]
  inhibition at 0.01 µM: 92.2%

## CCOc1cccc(OCC)c1NC(=O)Cc1oc2ccc(Cl)cc2c1-c1ccccc1C [Example 16, 5-Chloro-N-(2,6-diethoxyphenyl)-3-(2-methylphenyl)-2-benzofuranacetamide]
[1]
  inhibition at 1 µM: 98.1%
[3]
  inhibition at 0.01 µM: 50.3%

## Cc1ccccc1-c1c(CC(=O)Nc2c(F)cc(F)cc2F)oc2ccc(Cl)cc12 [Example 17, 5-Chloro-3-(2-methylphenyl)-N-(2,4,6-trifluorophenyl)-2-benzofuranacetamide]
[1]
  inhibition at 1 µM: 92.9%

## Cc1ccccc1-c1c(NC(=O)Nc2c(F)cc(F)cc2F)oc2ccc(Cl)cc12 [Example 18, N-[5-Chloro-3-(2-methylphenyl)-2-benzofuryl]-N'-(2,4,6-trifluorophenyl)urea]
[1]
  inhibition at 1 µM: 90.1%

## COc1cccc(OC)c1NC(=O)Nc1oc2ccc(Cl)cc2c1-c1ccccc1C [Example 19, N-[5-Chloro-3-(2-methylphenyl)-2-benzofuryl]-N'-(2,6-dimethoxyphenyl)urea]
[1]
  inhibition at 1 µM: 99%
[3]
  inhibition at 0.01 µM: 28.8%

## CCOc1cccc(OCC)c1NC(=O)Nc1oc2ccc(Cl)cc2c1-c1ccccc1C [Example 20, [5-Chloro-3-(2-methylphenyl)-2-benzofuryl]-N'-(2,6-diethoxyphenyl)urea]
[1]
  inhibition at 1 µM: 99.4%
[3]
  inhibition at 0.01 µM: 39.9%
